The target of experiment [1] is T1, FUT7 (Fucosyltransferase 7) (Homo sapiens, UniProt Q11130).
T1 sequence (Q11130 1-342): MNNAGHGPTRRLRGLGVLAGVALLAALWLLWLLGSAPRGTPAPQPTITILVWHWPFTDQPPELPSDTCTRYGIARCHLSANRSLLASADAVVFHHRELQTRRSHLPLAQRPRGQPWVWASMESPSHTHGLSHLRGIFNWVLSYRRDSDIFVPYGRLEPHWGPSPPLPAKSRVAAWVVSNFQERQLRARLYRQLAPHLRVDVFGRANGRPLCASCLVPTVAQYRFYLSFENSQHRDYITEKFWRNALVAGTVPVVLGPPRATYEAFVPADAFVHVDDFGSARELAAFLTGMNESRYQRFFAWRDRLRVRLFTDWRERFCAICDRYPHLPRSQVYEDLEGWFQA
Nature of the experiment: GDP-Glo bioluminescent enzyme assay, dose response with fetuin and GDP-fucose. Format: biochemical.

Experiment [2] deals with T2, OGT (O-GlcNAc Transferase) (Homo sapiens, UniProt O15294).
T2 sequence (O15294 2-236 isoform O15294-4): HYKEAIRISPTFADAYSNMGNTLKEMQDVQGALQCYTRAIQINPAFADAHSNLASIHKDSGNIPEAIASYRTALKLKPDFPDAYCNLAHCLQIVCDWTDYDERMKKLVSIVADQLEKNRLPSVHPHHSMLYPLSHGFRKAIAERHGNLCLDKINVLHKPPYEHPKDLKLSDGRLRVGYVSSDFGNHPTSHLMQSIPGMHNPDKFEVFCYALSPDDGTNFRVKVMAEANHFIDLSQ
Kind of experiment: UDP-Glo bioluminescent enzyme assay, dose response with OGT peptide and UDP-GlcNAc. The format is biochemical.

Consider three molecules from PMC8539010, “Utility of Bioluminescent Homogeneous Nucleotide Detection Assays in Measuring Activities of Nucleotide-Sugar Dependent Glycosyltransferases and Studying Their Inhibitors” (Molecules, 2021).

As a reminder, the IC50 is the midpoint of a concentration-inhibition curve. A higher IC50 goes with lower potency.

SMILES strings stand for the structures.

Consider `O=C(O)c1cc(O)c(O)c(O)c1` [Gallic acid], for which, in experiment [1], the IC50 came to 0.6 µM.

In turn, `O=C(O)C1CC(=O)N(CCC23CC4CC(CC(C4)C2)C3)C(=Nc2ccc(Cl)cc2)S1` (stereo not drawn) [ST045849] registered an IC50 in experiment [2] of 58 µM.

In experiment [2], `N#Cc1c(SCc2ccc(C(=O)O)cc2)nc2c(c1-c1cccs1)CCCC2` [ST078925] had an IC50 of 55 µM. The IC50 values of the last two molecules are within 1.5-fold of each other.
